Legend:
Type in all cases: in vivo
[1] = system: barnyardgrass (Echinochloa crus-galli); experiment: Test G Pre-Emergence Protocol; settings: Echinochloa crus-galli, pre-emergence, 312 h, evaluated after 13 days; for pest or weed control at 15.625 g/ha: 15.625 g ai/ha; for pest or weed control at 15.625 g/ha / pest or weed control at 250 g/ha: read-out: Barnyardgrass damage rating (100=total damage to plant; 0=no damage to plant); for pest or weed control at 62.5 g/ha: 62.5 g ai/ha, 100=total damage to plant, 0=no damage to plant, read-out: Barnyardgrass damage rating; for pest or weed control at 250 g/ha: 250 g ai/ha
In short: (§1)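 Seeds were sown in standard soil and kept one day in a glasshouse (24/16° C day/night, 14 h light, 65% humidity), then sprayed with compound in acetone/water (50:50) containing 0.5% Tween 20 at 15.625, 62.5 or 250 g/ha. Damage was scored after 13 days (0 = none, 100 = total).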

corn (Zea mays) [2] = experiment: Test G Pre-Emergence Protocol; settings: Zea mays, pre-emergence, 312 h, evaluated after 13 days; for plant injury at 15.625 g/ha: 15.625 g ai/ha; for plant injury at 15.625 g/ha / plant injury at 250 g/ha: read-out: Corn damage rating (100=total damage to plant; 0=no damage to plant); for plant injury at 62.5 g/ha: 62.5 g ai/ha, 100=total damage to plant, 0=no damage to plant, read-out: Corn damage rating; for plant injury at 250 g/ha: 250 g ai/ha
In short: as §1

[3] = system: giant foxtail (Setaria faberi); experiment: Test G Pre-Emergence Protocol; settings: Setaria faberi, pre-emergence, 312 h, evaluated after 13 days; for pest or weed control at 15.625 g/ha: 15.625 g ai/ha; for pest or weed control at 15.625 g/ha / pest or weed control at 250 g/ha: read-out: Foxtail, Giant damage rating (100=total damage to plant; 0=no damage to plant); for pest or weed control at 62.5 g/ha: 62.5 g ai/ha, 100=total damage to plant, 0=no damage to plant, read-out: Foxtail, Giant damage rating; for pest or weed control at 250 g/ha: 250 g ai/ha
In short: as §1

[4] = system: ivy-leaved morning glory (Ipomoea hederacea); experiment: Test G Pre-Emergence Protocol; settings: Ipomoea, pre-emergence, 312 h, evaluated after 13 days; for pest or weed control at 15.625 g/ha: 15.625 g ai/ha; for pest or weed control at 62.5 g/ha: 62.5 g ai/ha, 100=total damage to plant, 0=no damage to plant, read-out: Morningglory, Ivy-leaved damage rating
In short: as §1

[5] = system: redroot pigweed (Amaranthus retroflexus); experiment: Test G Pre-Emergence Protocol; settings: Amaranthus retroflexus, pre-emergence, 312 h, evaluated after 13 days; for pest or weed control at 15.625 g/ha: 15.625 g ai/ha; for pest or weed control at 15.625 g/ha / pest or weed control at 250 g/ha: read-out: Pigweed, Redroot damage rating (100=total damage to plant; 0=no damage to plant); for pest or weed control at 62.5 g/ha: 62.5 g ai/ha, 100=total damage to plant, 0=no damage to plant, read-out: Pigweed, Redroot damage rating; for pest or weed control at 250 g/ha: 250 g ai/ha
In short: as §1

[6] = system: velvetleaf (Abutilon theophrasti); experiment: Test G Pre-Emergence Protocol; settings: Abutilon theophrasti, pre-emergence, 312 h, evaluated after 13 days; for pest or weed control at 15.625 g/ha: 15.625 g ai/ha; for pest or weed control at 15.625 g/ha / pest or weed control at 250 g/ha: read-out: Velvetleaf damage rating (100=total damage to plant; 0=no damage to plant); for pest or weed control at 62.5 g/ha: 62.5 g ai/ha, 100=total damage to plant, 0=no damage to plant, read-out: Velvetleaf damage rating; for pest or weed control at 250 g/ha: 250 g ai/ha
In short: as §1

[7] = system: barnyardgrass (Echinochloa crus-galli); experiment: Test G Post-Emergence Protocol; settings: Echinochloa crus-galli, post-emergence, 312 h, read-out: Barnyardgrass damage rating; for pest or weed control at 15.625 g/ha: 15.625 g ai/ha, evaluated after 13 days (100=total damage to plant; 0=no damage to plant); for pest or weed control at 62.5 g/ha: 62.5 g ai/ha; for pest or weed control at 62.5 g/ha / pest or weed control at 250 g/ha: evaluated after 13 days, 100=total damage to plant, 0=no damage to plant; for pest or weed control at 250 g/ha: 250 g ai/ha
In short: (§2)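 Post-emergence herbicidal damage, scored visually 0–100 at 13 days. Application at 15.625, 62.5 or 250 g/ha onto 8-day-old plants grown under glasshouse control.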

corn (Zea mays) [8] = experiment: Test G Post-Emergence Protocol; settings: Zea mays, post-emergence, 312 h, read-out: Corn damage rating; for plant injury at 15.625 g/ha: 15.625 g ai/ha, evaluated after 13 days (100=total damage to plant; 0=no damage to plant); for plant injury at 62.5 g/ha: 62.5 g ai/ha; for plant injury at 62.5 g/ha / plant injury at 250 g/ha: evaluated after 13 days, 100=total damage to plant, 0=no damage to plant; for plant injury at 250 g/ha: 250 g ai/ha
In short: as §2

[9] = system: giant foxtail (Setaria faberi); experiment: Test G Post-Emergence Protocol; settings: Setaria faberi, post-emergence, 312 h, read-out: Foxtail, Giant damage rating; for pest or weed control at 15.625 g/ha: 15.625 g ai/ha, evaluated after 13 days (100=total damage to plant; 0=no damage to plant); for pest or weed control at 62.5 g/ha: 62.5 g ai/ha; for pest or weed control at 62.5 g/ha / pest or weed control at 250 g/ha: evaluated after 13 days, 100=total damage to plant, 0=no damage to plant; for pest or weed control at 250 g/ha: 250 g ai/ha
In short: as §2

[10] = system: ivy-leaved morning glory (Ipomoea hederacea); experiment: Test G Post-Emergence Protocol; settings: Ipomoea, post-emergence, 312 h, read-out: Morningglory, Ivy-leaved damage rating; for pest or weed control at 15.625 g/ha: 15.625 g ai/ha, evaluated after 13 days (100=total damage to plant; 0=no damage to plant); for pest or weed control at 62.5 g/ha: 62.5 g ai/ha; for pest or weed control at 62.5 g/ha / pest or weed control at 250 g/ha: evaluated after 13 days, 100=total damage to plant, 0=no damage to plant; for pest or weed control at 250 g/ha: 250 g ai/ha
In short: as §2

[11] = system: redroot pigweed (Amaranthus retroflexus); experiment: Test G Post-Emergence Protocol; settings: Amaranthus retroflexus, post-emergence, 312 h, read-out: Pigweed, Redroot damage rating; for pest or weed control at 15.625 g/ha: 15.625 g ai/ha, evaluated after 13 days (100=total damage to plant; 0=no damage to plant); for pest or weed control at 62.5 g/ha: 62.5 g ai/ha; for pest or weed control at 62.5 g/ha / pest or weed control at 250 g/ha: evaluated after 13 days, 100=total damage to plant, 0=no damage to plant; for pest or weed control at 250 g/ha: 250 g ai/ha
In short: as §2

[12] = system: velvetleaf (Abutilon theophrasti); experiment: Test G Post-Emergence Protocol; settings: Abutilon theophrasti, post-emergence, 312 h, read-out: Velvetleaf damage rating; for pest or weed control at 15.625 g/ha: 15.625 g ai/ha, evaluated after 13 days (100=total damage to plant; 0=no damage to plant); for pest or weed control at 62.5 g/ha: 62.5 g ai/ha; for pest or weed control at 62.5 g/ha / pest or weed control at 250 g/ha: evaluated after 13 days, 100=total damage to plant, 0=no damage to plant; for pest or weed control at 250 g/ha: 250 g ai/ha
In short: as §2

[13] = read-out: Morningglory, Ivy-leaved damage rating (100=total damage to plant; 0=no damage to plant)

Row | Compound | pest or weed control at 15.625 g/ha [1] [%] | pest or weed control at 62.5 g/ha [1] [%] | pest or weed control at 250 g/ha [1] [%] | plant injury at 15.625 g/ha (corn (Zea mays) [2]) [%] | plant injury at 62.5 g/ha (corn (Zea mays) [2]) [%] | plant injury at 250 g/ha (corn (Zea mays) [2]) [%] | pest or weed control at 15.625 g/ha [3] [%] | pest or weed control at 62.5 g/ha [3] [%] | pest or weed control at 250 g/ha [3] [%] | pest or weed control at 15.625 g/ha [4, 13] [%] | pest or weed control at 62.5 g/ha [4] [%] | pest or weed control at 15.625 g/ha [5] [%] | pest or weed control at 62.5 g/ha [5] [%] | pest or weed control at 250 g/ha [5] [%] | pest or weed control at 15.625 g/ha [6] [%] | pest or weed control at 62.5 g/ha [6] [%] | pest or weed control at 250 g/ha [6] [%] | pest or weed control at 15.625 g/ha [7] [%] | pest or weed control at 62.5 g/ha [7] [%] | pest or weed control at 250 g/ha [7] [%] | other results
1 | Cc1c(F)ccc(NC(=O)[C@@H]2C(=O)N(C)C[C@H]2c2ccc(C(F)(F)F)cc2)c1Cl (racemic) [Compound 1651] | 0 | 0 | 20 | 0 | 0 | 0 | 0 | 20 | 80 | 0 | 0 | 0 | 10 | 20 | 0 | 0 | 10 | 0 | 30 | 10 | pest or weed control at 250 g/ha ([4]; 250 g ai/ha, read-out: Morningglory, Ivy-leaved damage rating (100=total damage to plant; 0=no damage to plant)): 0%; plant injury at 15.625 g/ha (corn (Zea mays) [8]): 0%; plant injury at 62.5 g/ha (corn (Zea mays) [8]): 0%; plant injury at 250 g/ha (corn (Zea mays) [8]): 0%; pest or weed control at 15.625 g/ha [9]: 0%; pest or weed control at 62.5 g/ha [9]: 70%; pest or weed control at 250 g/ha [9]: 90%; pest or weed control at 15.625 g/ha [10]: 0%; pest or weed control at 62.5 g/ha [10]: 10%; pest or weed control at 250 g/ha [10]: 10%; pest or weed control at 15.625 g/ha [11]: 0%; pest or weed control at 62.5 g/ha [11]: 0%; pest or weed control at 250 g/ha [11]: 0%; pest or weed control at 15.625 g/ha [12]: 0%; pest or weed control at 62.5 g/ha [12]: 0%; pest or weed control at 250 g/ha [12]: 10%
2 | Cc1nc(F)ccc1NC(=O)[C@@H]1C(=O)N(C)C[C@H]1c1ccc(C(F)(F)F)cc1 (racemic) [Compound 1654] | 0 | 0 | 80 | 0 | 0 | 20 | 20 | 60 | 90 | 0 | 0 | 0 | 0 | 0 | 0 | 0 | 10 | 0 | 20 | 60 | plant injury at 15.625 g/ha (corn (Zea mays) [8]): 0%; plant injury at 62.5 g/ha (corn (Zea mays) [8]): 0%; plant injury at 250 g/ha (corn (Zea mays) [8]): 20%; pest or weed control at 15.625 g/ha [9]: 20%; pest or weed control at 62.5 g/ha [9]: 40%; pest or weed control at 250 g/ha [9]: 80%; pest or weed control at 15.625 g/ha [10]: 10%; pest or weed control at 62.5 g/ha [10]: 20%; pest or weed control at 250 g/ha [10]: 30%; pest or weed control at 15.625 g/ha [11]: 10%; pest or weed control at 62.5 g/ha [11]: 20%; pest or weed control at 250 g/ha [11]: 30%; pest or weed control at 15.625 g/ha [12]: 0%; pest or weed control at 62.5 g/ha [12]: 20%; pest or weed control at 250 g/ha [12]: 40%
